Results on three molecules are retold here after US12178841B2, “Treatment of non-cystic fibrosis bronchiectasis” (priority 2021, dated 2024).

Entries after “also recorded” stand apart in the source; their conditions may differ. Read-outs that look alike come from different tables or passages of the source.

For series [1] the following is noted: ORBIT-3 and RESPIRE-2 trials; cited from earlier work.
For another series, the system named is Pseudomonas aeruginosa. The series is described as follows: PROMIS I: Pseudomonas aeruginosa density in sputum. Format: in vivo, human. The conditions noted are these: for Mean change from baseline in P. aeruginosa density (mITT): n = 176. The source says: Least square means in each treatment group, least square mean difference between treatments, their 95% CIs and associated p-values will be estimated.
Summary statistics of the P. aeruginosa density (log 10 CFU/g sputum) and change from baseline (Visit 2) will be provided by treatment group for each trial visit.
Results of the quantitative analysis for P. aeruginosa density will be presented as colony forming units (CFU) count per gram sputum.

For series [2] the following is noted: human, in vivo; cited from earlier work.
On the set-up of series [3]: species or system human. The conditions noted are these: in vivo.
Text: Safety Variables • incidence of TEAEs; • absolute changes in percent-predicted FEV1 from baseline (Visit 2) to end of treatment (Visit 7); • number of subjects experiencing bronchospasm clinically or spirometrically determined following IMP administration at the start and end of treatment; • P. aeruginosa resistance to colistin sulphate as determined by in-vitro susceptibility testing on sputum from Screening/Randomisation (Visit 1/Visit 2) to Visits 3, 5 and end of treatment (Visit 7) as well as on sputum from Exacerbation Visits and clinic visits due to pneumonia; • emergence of other bacterial colonies and any developing resistance in sputum from Screening (Visit 1) to End of Treatment (Visit 7); • haematology, clinical chemistry and renal function tests; • physical examination and vital signs data; • 12-lead electrocardiogram
The conditions of series [4]: 1 MIU [33 mg CBA] via I-neb twice a day, up to 6 months, placebo 0.45% saline, cited from earlier work.
Series [5] is described as follows: PROMIS I Phase III clinical study: pulmonary exacerbations under inhaled CMS by I-neb vs placebo. Format: in vivo, human.

With `O=C(O)c1cn(C2CC2)c2cc(N3CCNCC3)c(F)cc2c1=O` [ciprofloxacin], the primary endpoints entry in series [1] is on record as “failed to achieve their primary endpoints”.

As for colistimethate sodium, the “Mean change from baseline in P. aeruginosa density (mITT)” value in the series with Pseudomonas aeruginosa (Visit 3 (28 days)) is recorded as −1.59 log10(CFU/mL); in the series with Pseudomonas aeruginosa (Visit 5 (6 months)), −1.39 log10(CFU/mL); with Pseudomonas aeruginosa (Visit 6 (9 months)), −1.56 log10(CFU/mL); with Pseudomonas aeruginosa (Visit 7 (12 months/EOT), includes those who discontinued early), −0.86 log10(CFU/mL). In addition, the “P. aeruginosa density (in words)” value in the series on Pseudomonas aeruginosa (patients on colistimethate sodium over the study) is “fell rapidly and remained suppressed; also recorded: falls rapidly and remains suppressed”. In series [2], the “adverse respiratory effects (cough, dyspnoea, bronchospasm, sore throat), people affected” value is on record as “at least 1 in 10”. In series [3], this molecule yielded a broncospasm experienced clinically of 0.6%. Also, the “safety and tolerability (in words)” value in series [3] is “safe and well tolerated”. The “time to first exacerbation (primary endpoint) vs placebo” value is given as “not statistically different” in series [4] and “failed to achieve its primary endpoint” in series [4] (listed as CMS). In addition, the “annual rate of exacerbations” value in series [5] (CMS 1 MIU (33 mg CBA) by I-neb twice a day, 12 months, placebo 0.95) came to 0.58 per patient per year. Further, the “severe exacerbations (requiring intravenous antibiotics and/or hospitalization), RR” value in series [5] (CMS I-neb vs placebo, 95% CI 0.23-0.74, p=0.003) amounted to 0.41. Also, the “time to first exacerbation, Hazard Ratio (HR)” value in series [5] (CMS I-neb vs placebo, 95% CI 0.43-0.81, p=0.00074) was determined as 0.59. The “rate ratio (RR) of annual rate of exacerbations vs placebo” value in series [5] (CMS I-neb vs placebo, 95% CI 0.46-0.82, p=0.00101) worked out at 0.61.

colistin: the “time to first exacerbation (primary endpoint) vs placebo” value in series [4] is “not to be associated with a statistically significant improvement”.
